These results are taken from US5962533A, “Hydroxy polyamines” (priority 1996, dated 1999).

The structures appear in SMILES notation. Read-outs that look alike come from different tables or passages of the source. Bounds are passed on as bounds.

For data set [1], the system named is polyamine transport apparatus. The data set is described as follows: Competition with radiolabeled spermidine for uptake into L1210 cells (Ki). In kind it is cell-based, Murine. On the procedure:
The same cell line was utilized to evaluate the tetraamines's competition with radiolabeled spermidine for the polyamine uptake apparatus (Ki). The Ki values here are the concentrations of drugs required to inhibit the uptake of radioactive spermidine transport by 50% (Table 1).
Uptake Determinations. The polyamine derivatives were studied for their ability to compete with [^3 H]SPD or [^14 C]SPD for uptake into L1210 leukemia cells in vitro. Cell suspensions were incubated in 1 ml of RPMI-1640 containing 1, 2, 4, 6, 8 and 10 μm radiolabeled SPD alone or with the additional presence of 10, 25 and 50 μm polyamine analogue for 20 minutes at 37° C. At the end of the incubation period, tubes were centrifuged at 900 g for 5 minutes at 0-4° C. The pellet was washed twice with 5 ml of cold RPMI-1640 containing 1 mm SPD, dissolved in 200 μl of 1N NaOH at 60° C. for 1 hour, and neutralized with 1N HCl. The material was transferred to a vial for scintillation counting.

Data set [2] in a line: Acute toxicity, single intraperitoneal injection. To be noted: mouse, in vivo, ip.
Data set [3] relates to castor oil-induced diarrhea. The data set is described as follows: Castor oil-induced diarrhea. The format is in vivo, rat. The note with it: rat; for stool output / diarrhea during 6 hour assay (FIG. 8): subcutaneous injection 30 minutes before castor oil 5 ml/kg. From the text:
Castor Oil-Induced Diarrhea. Male Sprague-Dawley rats (350-400 g) were fasted overnight in hanging wire cages and allowed free access to water.

A short description of data set [4]: Protonation state at physiological pH assumed from measured pKa values. In kind it is physicochemical. To be noted: physiological pH of 7.2. On the procedure: All of the non-aromatic, non-trifluoroethylated tetraamines are largely in the form of the tetracation at the physiological pH of 7.2. The spermine analogues (13-16 and 34) and the homospermine analogues and homologues (18-26, 29 and 31-33) should be 85 and 97%, respectively, in the form of the tetracations. The norspermine analogues (9-12) should be at least 74% in the form of the tetracations. […] Thus, the calculation of atomic charges and conformational search of these analogues were carried out based on the anticipated protonated structures.

Where [5] appears, read: tetraamine analogues, L1210 cells, radiolabeled spermidine uptake, read-out: Ki, actual (Table 1).
Where [6] appears, read: triamine analogues, bioassay results not in model data set, read-out: Ki, Actual (Table 2).

One may read the Ki as a dissociation constant, usually derived from enzyme kinetics or from competition with a known ligand. On to `C(CCNCCCCNC12CC3CC(CC(C3)C1)C2)CNCCCCNC12CC3CC(CC(C3)C1)C2` [BAHSPM], for which the Ki in data set [1] (setting [5]) turned out to be 2 µM.

For the compound `CCNCCCCNCCCCNCCCNCC` [DE(3,4,4)], in data set [1] (setting [5]), the Ki amounted to 8 µM.

For the compound `CCNCCCCNCCCNCCCCNCC` [DE(4,3,4)], the Ki in data set [1] (setting [5]) was determined as 4 µM.

Turning to `CCNCCCCNCCCCCNCCCCNCC` [DE(4,5,4)], in data set [1] (setting [5]), the Ki is 6 µM.

As to `CCNCCCCNCCCCNCC` [DEHSPD], in data set [1] (setting [6]), the Ki worked out at 115 µM.

With `CCNCCCNCCCNCC` [DENSPD], the inhibition constant Ki in data set [1] (setting [6]) stood at 200 µM.

In general, LD50 refers to the dose at which mortality reaches 50%. For the compound `CCNCCCNCCCNCCCNCC` [DENSPM, Diethylnorspermine], the median lethal dose (LD50) in data set [2] turned out to be 325 mg/kg. Also, the Ki in data set [1] (setting [5]) stood at 17 µM. Besides, the anti-diarrheal activity entry in data set [3] (40 mg/kg) is given as “far less active than the homospermine compounds”. For the same compound, in data set [3], the “stool output / diarrhea during 6 hour assay (FIG. 8)” value was “became diarrheal during the 6 hour assay”.

Take `CCNCCCCNCCCNCC` [DESPD]: the Ki in data set [1] (setting [6]) turned out to be 19.3 µM.

With `CCNCCCNCCCCNCCCNCC` [DESPM], in data set [1] (setting [5]), the Ki was determined as 1.6 µM.

In the case of `CC(C)NCCCCNCCCCNCCCCNC(C)C` [DIPHSPM], the inhibitory constant (Ki) in data set [1] (setting [5]) stood at 8.1 µM.

On to `CC(C)NCCCNCCCNCCCNC(C)C` [DIPNSPM], for which the Ki in data set [1] (setting [5]) was determined as 40 µM.

As to `CNCCCCNCCCCNCCCCNC` [DMHSPM], the Ki in data set [1] (setting [5]) came to 0.97 µM.

`CNCCCNCCCNCCCNC` [DMNSPM]: the Ki in data set [1] (setting [5]) is 5.6 µM.

As for `CNCCCNCCCCNCCCNC` [DMSPM], the inhibition constant (Ki) in data set [1] (setting [5]) came out at 1.1 µM.

With `CCCNCCCNCCCNCCCNCCC` [DPNSPM], in data set [3] (15 mg/kg), the anti-diarrheal activity result is “far less active than the homospermine compounds”. Further, the “stool output / diarrhea during 6 hour assay (FIG. 8)” value in data set [3] is recorded as “became diarrheal during the 6 hour assay”.

For the compound `CCCNCCCNCCCCNCCCNCCC` [DPSPM], the Ki in data set [1] (setting [5]) stood at 2.3 µM.

For `CC(C)(C)NCCCCNCCCCNCCCCNC(C)(C)C` [DTBHSPM], the Ki in data set [1] (setting [5]) came out at 56 µM.

Turning to `CCNCCCCNCCCCNCCCCNC(C)(C)C` [ETBHSPM], in data set [1] (setting [5]), the Ki amounted to 3 µM.

In the case of `FC(F)(F)CNCCCNCCCCNCCCNCC(F)(F)F` [FDESPM, N^1,N^12-bis(2,2,2-trifluoroethyl)spermine], in data set [1] (setting [5]), the Ki amounted to 285 µM. The protonation state result in data set [4] was “almost exclusively in the form of the internal dication”.

Turning to `NCCCCNCCCCN` [HSPD], the Ki in data set [1] (setting [6]) came out at 3.5 µM.

As to `NCCCCNCCCCNCCCCN` [HSPM, homospermine], the “stool output / diarrhea during 6 hour assay (FIG. 8)” value in data set [3] is “became diarrheal during the 6 hour assay”.

As for `CCNCCCCNCCCCNCCCCN` [MEHSPM, N^1 -ethylhomospermine], the Ki in data set [1] (setting [5]) was found to be 1.1 µM.

Turning to `CCNCCCNCCCNCCCN` [MENSPM, N^1 -ethylnorspermine], the Ki in data set [1] (setting [5]) was 7.7 µM.

`NCCCNCCCN` [NSPD, norspermidine]: the Ki in data set [1] (setting [6]) worked out at 8.4 µM.

Consider `CCNCCCNCCCCN` [N^1 -MESPD], for which the Ki in data set [1] (setting [6]) worked out at 8.6 µM.

As to `CCNCCCCNCCCN` [N^8 -MESPD], the Ki in data set [1] (setting [6]) came to 7 µM.

For `C(CCNC1CCNCC1)CNC1CCNCC1` [PIP(3,4,3)], in data set [1] (setting [5]), the Ki is 60.5 µM.

Turning to `C(CCNCC1CCNCC1)CNCC1CCNCC1` [PIP(4,4,4)], the Ki in data set [1] (setting [5]) came out at 4.9 µM.

With `C(CCNCCC1CCNCC1)CNCCC1CCNCC1` [PIP(5,4,5)], the Ki in data set [1] (setting [5]) amounted to 18.1 µM.

In the case of `c1cc(NCCCNc2ccncc2)ccn1` [PYR(3,3,3)], the Ki in data set [1] (setting [5]) is above 500 µM. Besides, the protonation state result in data set [4] is recorded as “terminal dication”.

For the compound `c1cc(CNCCCCNCc2ccncc2)ccn1` [PYR(4,4,4)], in data set [1] (setting [5]), the Ki is above 500 µM. In data set [4], the protonation state entry was “almost exclusively in the form of the internal dication”.
